Experimental findings from ChEMBL document CHEMBL1154224, “Spiropiperidine CCR5 antagonists” (Bioorg Med Chem Lett, 2009) are described below.

Series [1] is described as follows: Efflux ratio of permeability from basolateral to apical to apical to basolateral side in human 21 days cultured Caco-2 cells. The series is classed as ADME, cell-based.
The nature of series [2]: (§1) Intrinsic clearance in human liver microsomes assessed per mg of protein. The series is classed as ADME, Microsome. Conditions: liver microsomes. For orientation: Microsomes from liver hold many membrane-bound enzymes, among them those of drug oxidation.
Series [3] addresses C-C chemokine receptor type 5 (Homo sapiens, UniProt P51681). As to the kind of experiment: Displacement of [125I]RANTES from human CCR5 receptor co-transfected with Galphai6 in CHO cells. The series is classed as cell-based. (In a radioligand displacement assay an active substance lowers the binding of a labelled ligand.)
The subject of series [4] is Human immunodeficiency virus 1. Description: Antiviral activity against recombinant HIV1 virus infected in human JC53BL cells after 3 days. The series is classed as functional, organism-based. Conditions: Human immunodeficiency virus 1, JC53BL, 72 h.
Series [5] in a line: (§2) Intrinsic clearance in rat liver microsomes assessed per mg of protein. The series is classed as ADME, Microsome. The note with it: liver microsomes.
Series [6] is described as follows: Permeability from apical to basolateral side of the human 21 days cultured Caco-2 cells. The series is classed as ADME, cell-based. The note with it: read-out: permeability. On the technique in general: Caco-2 cells form a polarised layer with tight junctions and transporters.
For the next series, the species on record is Homo sapiens. As to the kind of experiment: Hepatic blood flow in human. The series is classed as ADME, organism-based, Liver.
Series [7] has as its system Liver microsomes. Described as §1. The series is classed as ADME, Microsome. The note with it: microsomes.
Series [8] can be described thus: Oral bioavailability in rat at 10 mg/kg. The series is classed as ADME, organism-based. The note with it: in vivo.
Series [9] relates to Liver microsomes. Described as §2. The note with it: microsomes. The series is classed as ADME, Microsome.

A word on the efflux ratio: it is the permeability from basolateral to apical divided by that in the opposite direction, in the common usage. By microsomal CLint is commonly meant the capacity of the preparation to metabolise the compound, expressed as a volume cleared per time. Low values mean slow turnover, high ones rapid turnover. The IC50 is the point on the concentration scale where inhibition reaches its midpoint. For orientation: bioavailability means dose-corrected exposure relative to a reference, in per cent.

SMILES strings stand for the structures.

C-C chemokine receptor type 5, sequence (P51681 whole entry): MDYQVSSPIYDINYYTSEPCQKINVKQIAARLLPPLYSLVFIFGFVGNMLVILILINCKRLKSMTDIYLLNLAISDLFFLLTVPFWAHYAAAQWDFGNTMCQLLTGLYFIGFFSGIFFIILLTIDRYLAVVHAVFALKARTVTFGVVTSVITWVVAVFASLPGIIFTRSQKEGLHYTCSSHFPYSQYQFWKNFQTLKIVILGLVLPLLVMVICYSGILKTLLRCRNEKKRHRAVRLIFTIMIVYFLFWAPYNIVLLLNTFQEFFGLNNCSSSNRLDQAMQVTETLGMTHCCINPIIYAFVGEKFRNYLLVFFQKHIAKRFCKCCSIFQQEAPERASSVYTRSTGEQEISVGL

Consider `CCCCC1N(CC2CCCCC2)C(=O)OC12CCN(C1(C)CCN(C(=O)c3c(C)cccc3C)CC1)CC2` (centres undefined), for which, in [1], the efflux ratio came to 0.4. The microsomal CLint was found to be 526 µL/min/mg in [2] and 523 µL/min/mg in series [5]. For the same compound, the IC50 in [3] was 10 nM; in series [4] it was below 1.2 nM. Moreover, in series [6], the Papp A→B was determined as 14 ×10⁻⁶ cm/s.
Regarding `CCCCC1N(CC2CCCCC2)C(=O)OC12CCN(C1(C)CCN(C(=O)c3c(C)ncnc3C)CC1)CC2` (centres undefined), the microsomal CLint in series [2] was determined as 162 µL/min/mg. Besides, the IC50 in series [3] is 7 nM; in [4], 46 nM.
In the case of `CCCCC1N(CC2CCCCC2)C(=O)OC12CCN(C1CCN(C(=O)c3ccccc3C)CC1)CC2` (centres undefined), the half-inhibitory concentration (IC50) in series [3] was 100 nM; in series [4], above 625 nM.
The corresponding values for `CCCCC1N(CC2CCCC2)C(=O)OC12CCN(C1CCN(C(=O)c3c(C)cccc3C)CC1)CC2` (centres undefined) are 18 nM and above 625 nM.
Regarding `CCCCC1CN(CC2CCCCC2)C(=O)OC12CCN(C1CCN(C(=O)c3c(C)ncnc3C)CC1)CC2` (centres undefined), the LBF in the series filed under Homo sapiens is given as 82%. In addition, the clearance in the series with Liver microsomes [7] turned out to be 119 µL/min/mg; in the series with Liver microsomes [9], 80 µL/min/mg. Further, the bioavailability in [8] was 43%. Further, the concentration for half-maximal inhibition (IC50) in series [3] turned out to be 68 nM; in series [4], 31 nM.
`CCCCC1CN(CC2CCOCC2)C(=O)OC12CCN(C1CCN(C(=O)c3c(C)cccc3C)CC1)CC2` (centres undefined) gave a microsomal CLint in series [2] of 164 µL/min/mg. Further, the IC50 in [3] was 89 nM; in [4], 24 nM.
For the compound `CCCCC1CN(CC2CCOCC2)C(=O)OC12CCN(C1CCN(C(=O)c3c(C)ncnc3C)CC1)CC2` (centres undefined), the IC50 in series [3] came out at 76 nM; in series [4], 405 nM.
The corresponding values for `CCCCC1N(CC2CCOCC2)C(=O)OC12CCN(C1CCN(C(=O)c3c(C)cccc3C)CC1)CC2` (centres undefined) are 24 nM and above 625 nM.
`CCCC[C@@H]1CN(CC2CCOCC2)C(=O)OC12CCN(C1(C)CCN(C(=O)c3c(C)ncnc3C)CC1)CC2` yielded a microsomal CLint in series [2] of 17 µL/min/mg. Further, the IC50 in series [3] is 100 nM; in [4], above 625 nM.
For `CCCC[C@H]1CN(CC2CCCCO2)C(=O)OC12CCN(C1(C)CCN(C(=O)c3c(C)ccnc3C)CC1)CC2` (some centres undefined), the microsomal CLint in series [2] turned out to be 53 µL/min/mg. For the same compound, the IC50 in series [3] amounted to 10 nM; in [4], 55 nM.
Consider `CCCC[C@H]1CN(C2CCOCC2)C(=O)OC12CCN(C1(C)CCN(C(=O)c3c(C)ncnc3C)CC1)CC2`, for which the IC50 in [4] was 84 nM.
Turning to `CCCCC1N(Cc2ccccc2)C(=O)OC12CCN(C1CCN(C(=O)c3c(C)cccc3C)CC1)CC2` (centres undefined), the IC50 in series [3] is 144 nM; in [4] it was above 625 nM.
As to `CCCC1N(CC2CCCCC2)C(=O)OC12CCN(C1CCN(C(=O)c3c(C)cccc3C)CC1)CC2` (centres undefined), the results for the IC50 in series [3] and in series [4] were 300 nM and above 625 nM, respectively.
For `CCCCC1N(CC2CCOCC2)C(=O)OC12CCN(C1(C)CCN(C(=O)c3c(C)ncnc3C)CC1)CC2` (centres undefined), the efflux ratio in series [1] was determined as 31. Besides, in [2], the microsomal CLint came to 27 µL/min/mg. For the same compound, the IC50 came to 58 nM in series [3] and 375 nM in series [4]. Further, in [6], the Papp A→B was 0.6 ×10⁻⁶ cm/s.
As to `CCCC[C@H]1CN(CC2CCOCC2)C(=O)OC12CCN(C1(C)CCN(C(=O)c3c(C)cc[n+]([O-])c3C)CC1)CC2`, the IC50 in series [3] stood at 80 nM; in series [4], 52 nM.
In turn, `CCCC[C@H]1CN(CC2CCOCC2)C(=O)OC12CCN(C1(C)CCN(C(=O)c3c(C)cc(=O)oc3C)CC1)CC2` yielded a microsomal CLint in series [2] of 36 µL/min/mg. In addition, the IC50 worked out at 12 nM in series [3] and 3 nM in series [4].
With `CCCC[C@H]1CN(CC2CCOCC2)C(=O)OC12CCN(C1(C)CCN(C(=O)c3c(C)nc(C(F)(F)F)nc3C)CC1)CC2`, the microsomal CLint in series [2] is 46 µL/min/mg. Further, the IC50 stood at 97 nM in series [3] and 3 nM in [4].
In turn, `CCCC[C@H]1CN(CC2CCC(F)(F)CC2)C(=O)OC12CCN(C1(C)CCN(C(=O)c3c(C)ncnc3C)CC1)CC2` gave a microsomal CLint in series [2] of 106 µL/min/mg. Moreover, the results for the IC50 in [3] and in [4] were 27 nM and 2 nM, respectively.
As for `CCCCC1CN(CC2CCOCC2)C(=O)OC12CCN(C1(C)CCN(C(=O)c3c(C)ncnc3C)CC1)CC2` (centres undefined), the microsomal CLint in series [2] was determined as 17 µL/min/mg. Also, the IC50 in series [3] turned out to be 25 nM; in [4], 14 nM.
The corresponding values for `CCCCC1CN(CC2CCCCC2)C(=O)OC12CCN(C1CCN(C(=O)c3c(C)cccc3C)CC1)CC2` (centres undefined) are 307 µL/min/mg, 30 nM and 29 nM.
Compound `CCCC[C@H]1CN(CCC2CCOCC2)C(=O)OC12CCN(C1(C)CCN(C(=O)c3c(C)ncnc3C)CC1)CC2` had a microsomal CLint in series [2] of 37 µL/min/mg. Besides, the IC50 in series [4] came out at 8 nM.
`CCCC[C@H]1CN(CC2CCOCC2)C(=O)OC12CCN(C1(C)CCN(C(=O)c3c(C)ccnc3C)CC1)CC2` had a microsomal CLint in [2] of 33 µL/min/mg. Further, the IC50 in series [3] was found to be 61 nM; in series [4], 4 nM.
On to `CCCC[C@H]1CN(C)C(=O)OC12CCN(C1(C)CCN(C(=O)c3c(C)cc(C#N)nc3C)CC1)CC2`, for which, in series [2], the microsomal CLint was 28 µL/min/mg. In addition, the IC50 came to 22 nM in [3] and 12 nM in series [4].
For `CCCCC1N(CC2CCCCC2)C(=O)OC12CCN(C1CCN(C(=O)c3c(C)cccc3C)CC1)CC2` (centres undefined), the microsomal CLint in series [2] was 675 µL/min/mg; in [5], 2000 µL/min/mg. Further, the results for the half-maximal inhibitory concentration (IC50) in series [3] and in series [4] were 51 nM and 125 nM, respectively.
Compound `CCCCC1CN(CC2CCOCC2)C(=O)OC12CCN(C1(C)CCN(C(=O)c3c(C)cc(C#N)nc3C)CC1)CC2` (racemic) displayed a microsomal CLint in [2] of 42 µL/min/mg. For the same compound, the IC50 in series [3] came to 24 nM; in series [4], 4 nM.
